In brackets after ≈: the same amount, converted by molar mass. Activity calls are given as the source filed them. The rule behind the calls is not given here.
How the values were obtained:
Klebsiella pneumoniae = assay: Antibacterial activity against Klebsiella pneumoniae ATCC 700603 after 18 hrs by CLSI based broth microdilution method; type: functional; details: Klebsiella pneumoniae, 700603, 18 h
Escherichia coli [1] = assay: Ratio of MIC for Escherichia coli ATCC 25922 preincubated for 1 hr in presence of 10% mouse serum and measured after 18 hrs to MIC for antibacterial activity against Escherichia coli ATCC 25922 after 18 hrs; type: functional
Staphylococcus aureus [2] = assay: Antibiofilm activity against Staphylococcus aureus ATCC 25923 at 2 times of MIC after 24 hrs by crystal violet staining based assay; type: functional, organism-based
[3] = Cytotoxicity against mouse RAW264.7 cells assessed as cell proliferation at 64 uM after 1 hr by MTT assay relative to control; type: cell-based; details: read-out: Activity
Escherichia coli [4] = assay: Ratio of antibacterial activity against Escherichia coli ATCC 25922 in presence of KCl to antibacterial activity against Escherichia coli ATCC 25922; type: functional
Escherichia coli [5] = assay: Induction of membrane disruption in Escherichia coli ATCC 25922 assessed as rough membrane surface at 4 times of MIC after 2 hrs by SEM analysis; type: functional, organism-based
Escherichia coli [6] = assay: Antibiofilm activity against Escherichia coli ATCC 25922 assessed as reduction in biofilm inhibition at 0.5 to 1 times of MIC after 24 hrs by crystal violet staining based assay; type: functional, organism-based
[7] = Selectivity index, ratio of MHC10 for human RBC to geometric mean of peptide MIC for gram negative bacteria; type: toxicity; details: human red blood cells, read-out: Selectivity Index
Staphylococcus aureus [8] = assay: Antibacterial activity against Staphylococcus aureus ATCC 25923 after 18 hrs in presence of KCl by CLSI based broth microdilution method (reference value: 32 microM); type: functional; details: ATCC 25923, 18 h
DNA = assay: Binding affinity to Escherichia coli ATCC 25922 genomic DNA at 4 x MIC after 30 mins by agarose gel electrophoresis; type: nucleic-acid assay
Escherichia coli [9] = assay: Antibacterial activity against Escherichia coli ATCC 25922 after 18 hrs in presence of NaCl by CLSI based broth microdilution method (reference value: 16 microM); type: functional; details: ATCC 25922, 18 h
Escherichia coli [10] = assay: Antibacterial activity against Escherichia coli ATCC 25922 after 18 hrs in presence of FeCl3 by CLSI based broth microdilution method (reference value: 16 microM); type: functional; details: ATCC 25922, 18 h
Staphylococcus aureus [11] = assay: Antibiofilm activity against Staphylococcus aureus ATCC 25923 at 1 to 2 times of MIC after 24 hrs by crystal violet staining based assay; type: functional, organism-based
Escherichia coli [12] = assay: Antimicrobial activity against Escherichia coli ATCC 25922 preincubated for 6 hrs in presence of 10% mouse serum and measured after 18 hrs by CLSI-based broth microdilution assay (reference value: 16 microM); type: functional
Escherichia coli [13] = assay: Antibiofilm activity against Escherichia coli ATCC 25922 assessed as reduction in biofilm inhibition at MIC after 24 hrs by crystal violet staining based assay relative to control; type: functional
Escherichia coli [14] = assay: Antibacterial activity against Escherichia coli ATCC 25922 after 18 hrs in presence of KCl by CLSI based broth microdilution method (reference value: 16 microM); type: functional; details: ATCC 25922, 18 h
Staphylococcus aureus [15] = assay: Antibacterial activity against Staphylococcus aureus ATCC 25923 after 18 hrs in presence of NaCl by CLSI based broth microdilution method (reference value: 128 microM); type: functional; details: ATCC 25923, 18 h
Escherichia coli [16] = assay: Antimicrobial activity against Escherichia coli ATCC 25922 preincubated for 1 hr in presence of 10% mouse serum and measured after 18 hrs by CLSI-based broth microdilution assay (reference value: 16 microM); type: functional
Escherichia coli [17] = assay: Antibacterial activity against Escherichia coli ATCC 25922 after 18 hrs in presence of MgCl2 by CLSI based broth microdilution method (reference value: 16 microM); type: functional; details: ATCC 25922, 18 h

SMILES | MIC (Klebsiella pneumoniae) [µM] | Ratio (Escherichia coli [1]) | inhibition (Staphylococcus aureus [2]) | viability at 1 h, 64 µM [3] [%] | Ratio (Escherichia coli [4]) | Activity (Escherichia coli [5]) | inhibition (Escherichia coli [6]) | selectivity ratio [7] | MIC (Staphylococcus aureus [8]) [µM] | Activity (DNA) | MIC (Escherichia coli [9]) [µM] | MIC (Escherichia coli [10]) [µM] | inhibition (Staphylococcus aureus [11]) | MIC (Escherichia coli [12]) [µM] | inhibition (INH) (Escherichia coli [13]) [%] | MIC (Escherichia coli [14]) [µM] | MIC (Staphylococcus aureus [15]) [µM] | MIC (Escherichia coli [16]) [µM] | MIC (Escherichia coli [17]) [µM]
CCCCCCCC(=O)NCC(=O)N[C@@H](CC(C)C)C(=O)N[C@@H](CC(C)C)C(=O)N[C@H](CCCCN)C(=O)N[C@@H](CCCNC(=N)N)C(=O)N[C@H](C(=O)N[C@H](CCCCN)C(=O)N[C@H](C(=O)N[C@@H](CC(C)C)C(=O)N[C@@H](CC(C)C)C(N)=O)[C@@H](C)O)[C@@H](C)CC | 64 (≈ 81.9 µg/mL) | 1 | Active | > 80 | 2 - 4 | Active | Active | 12.2 | 64 | Active |  |  |  |  |  |  |  |  | 
CCCC(=O)NC(Cc1cn(CCCC[C@H](NC(C)=O)C(=O)NCC(=O)N[C@@H](CC(C)C)C(=O)N[C@@H](CC(C)C)C(=O)N[C@H](CCCCN)C(=O)N[C@@H](CCCNC(=N)N)C(=O)N[C@H](C(=O)N[C@H](CCCCN)C(=O)N[C@H](C(=O)N[C@@H](CC(C)C)C(=O)N[C@@H](CC(C)C)C(N)=O)[C@@H](C)O)[C@@H](C)CC)nn1)C(=O)NCC(=O)N[C@@H](CC(C)C)C(=O)N[C@@H](CC(C)C)C(=O)N[C@H](CCCCN)C(=O)N[C@@H](CCCNC(=N)N)C(=O)N[C@H](C(=O)N[C@H](CCCCN)C(=O)N[C@H](C(=O)N[C@@H](CC(C)C)C(=O)N[C@@H](CC(C)C)C(N)=O)[C@@H](C)O)[C@@H](C)CC (stereo not given in full) | 32 (≈ 85.4 µg/mL) | 1 |  | > 80 | 2 - 4 | Active |  | 32 |  |  | 128 | 16 | Active | 16 | >50 | 16 | > 128 | 16 | 32

Source: ChEMBL document CHEMBL4359906, “Design and synthesis of new N-terminal fatty acid modified-antimicrobial peptide analogues with potent in vitro biological activity” (Eur J Med Chem, 2019)
